Laboratory results published in patent US20230390251A1, “METHODS OF TREATING RIBONUCLEOTIDE REDUCTASE-RELATED DISEASES WITH A RIBONUCLEOTIDE REDUCTASE INHIBITOR” (TAIHO PHARMACEUTICAL CO., LTD., priority 2020, published 2023).

Experiments:
[1] = Body weight change as index of toxicity in MV-4-11 tumor-bearing nude mice; type: in vivo
CFPAC-1 cells [2] = assay: Cell proliferation assay in CFPAC-1 cells treated with siRNA against SLFN11; type: cell-based; details: pancreatic cancer cell line CFPAC-1, siSLFN11 vs siControl, 3 days of exposure
Protocol: (§1) A673 cells, NCI-H460 cells and CFPAC-1 cells were transfected with 1 nM siRNAs for 24 h using Lipofectaminet®RNAiMAX Reagent (Thermo Fisher Scientific Inc.) and then re-seeded onto a 96-well plate for cell proliferation assay and caspase induction assay and onto dishes for immunoblotting analysis. siRNAs were obtained from Thermo Fisher Scientific Inc. as follows: Silencer® Select Negative Control #1 siRNA (#4390843 used as siControl), SLFN11 Silencer® Select Pre-designed siRNA (#s40703 used as siSLFN11-1, #s40704 as siSLFN11-2, and #s40702 as siSLFN11-3).
(§2) Cell proliferation assay was performed in accordance with conventional methods, available in Hasako, et al., ibid. Briefly, cells treated with siRNAs for 24 h were plated onto 96 well plate and incubated for 24 h, followed by 3 days of exposure to the compound A. After compound exposure, viable cells were detected by using the CellTiter-Glo luminescent cell viability assay (Promega).

[3] = tested on: 11 sarcoma cell lines listed in Table 1; assay: Cell proliferation assay (CellTiter-Glo) in 11 sarcoma cell lines, correlated with SLFN11 mRNA expression; type: cell-based; details: 100 micro mol/L Compound A, 3 days of exposure, Pearson's correlation (P<0.05)
Protocol: Cell proliferation assay was performed in accordance with conventional methods, available in Hasako. S., et al. Mol Cancer Ther 17, 1648-1658 (2018). Briefly, cells were plated and incubated for 1 day, followed by 3 days of exposure to the compound. After exposure to Compound A, viable cells were detected by using the CellTiter-Glo luminescent cell viability assay (Promega). The experiment was performed in triplicates.
Correlation analysis of SLFN11 expression and Compound A cytotoxicity was performed using Pearson's correlation coefficient (P<0.05) in JMP 13 software. The gene expression data of cell lines were available online CCLE (http://www.broadinstitute.org/ccle/home). Compound A cytotoxicity data from 11 cell lines in Table 1 were used for correlation analysis (data for correlation was not shown).
The correlation between SLFN11 mRNA expression and the relative growth percent of cells at 100 micro mol/L treatment by Compound A was analyzed in 11 sarcoma cell lines listed in Table 1.

[4] = target: T1, Ribonucleotide reductase (RNR) (Homo sapiens, UniProt P23921+P31350); details: from the literature (NPL 7; PL 1); cited from earlier work
T1 sequence (P23921 1-792): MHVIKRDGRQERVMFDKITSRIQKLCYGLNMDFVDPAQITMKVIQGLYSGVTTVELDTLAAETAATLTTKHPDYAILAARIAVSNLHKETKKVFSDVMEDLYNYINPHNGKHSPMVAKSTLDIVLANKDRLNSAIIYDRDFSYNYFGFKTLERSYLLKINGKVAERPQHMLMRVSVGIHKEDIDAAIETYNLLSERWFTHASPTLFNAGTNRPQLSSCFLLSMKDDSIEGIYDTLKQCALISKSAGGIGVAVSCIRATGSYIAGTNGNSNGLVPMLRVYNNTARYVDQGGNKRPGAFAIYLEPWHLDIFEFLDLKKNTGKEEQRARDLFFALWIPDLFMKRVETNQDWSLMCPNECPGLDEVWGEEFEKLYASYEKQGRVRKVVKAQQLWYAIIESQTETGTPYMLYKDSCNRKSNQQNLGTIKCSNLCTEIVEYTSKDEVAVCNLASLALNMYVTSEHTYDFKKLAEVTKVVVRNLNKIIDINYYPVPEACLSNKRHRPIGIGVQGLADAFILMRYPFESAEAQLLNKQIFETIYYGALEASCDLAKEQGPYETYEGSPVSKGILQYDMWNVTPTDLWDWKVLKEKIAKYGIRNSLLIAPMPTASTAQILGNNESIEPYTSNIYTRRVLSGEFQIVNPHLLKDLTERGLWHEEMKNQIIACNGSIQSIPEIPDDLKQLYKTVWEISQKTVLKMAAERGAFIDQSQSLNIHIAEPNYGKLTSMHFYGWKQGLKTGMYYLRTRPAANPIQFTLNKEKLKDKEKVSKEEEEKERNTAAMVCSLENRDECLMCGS
T1 sequence (P31350 1-389): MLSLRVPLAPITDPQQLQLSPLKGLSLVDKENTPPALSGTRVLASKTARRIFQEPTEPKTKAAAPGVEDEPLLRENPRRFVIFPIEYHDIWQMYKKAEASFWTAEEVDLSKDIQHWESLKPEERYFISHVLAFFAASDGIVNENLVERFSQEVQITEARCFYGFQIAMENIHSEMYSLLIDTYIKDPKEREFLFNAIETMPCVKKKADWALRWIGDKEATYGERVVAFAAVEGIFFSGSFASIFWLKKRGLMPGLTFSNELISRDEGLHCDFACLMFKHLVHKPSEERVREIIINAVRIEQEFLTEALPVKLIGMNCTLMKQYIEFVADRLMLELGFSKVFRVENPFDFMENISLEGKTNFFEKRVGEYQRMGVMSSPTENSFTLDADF

CFPAC-1 cells [5] = assay: Caspase-Glo 3/7 caspase induction assay in CFPAC-1 cells treated with siRNA against SLFN11; type: cell-based; details: 10 micro mol/L, 24 h; CFPAC-1 cells transfected with siRNA against SLFN11
Protocol: as §1
(§3) Caspase induction assay was performed in accordance with conventional methods, available in Hasako., et al., ibid. Briefly, the cells with siRNAs for 24 h were seeded onto 96 well plate, incubated for 24 h, and then treated with Compound A for 24 h. Caspase induction was detected by using the Caspase-Glo 3/7 assay (Promega).

A673 cells = assay: Cell proliferation assay in A673 cells treated with siRNA against SLFN11; type: cell-based; details: A673 Ewing sarcoma cells, siSLFN11 vs siControl, 3 days of exposure
Protocol: as §1, §2

NCI-H460 cells = assay: Caspase-Glo 3/7 caspase induction assay in NCI-H460 cells treated with siRNA against SLFN11; type: cell-based; details: 10 micro mol/L, 24 h; NCI-H460 cells transfected with siRNA against SLFN11
Protocol: as §1, §3

Compound: Cc1ccc(F)c([C@@H](C)[C@H](NS(=O)(=O)c2ccc(Cl)cc2C(N)=O)c2n[nH]c(=O)o2)c1C [Compound A, 5-chloro-2-(N-((1S,2R)-2-(6-fluoro-2,3-dimethylphenyl)-1-(5-oxo-4,5-dihydro-1,3,4-oxadiazol-2-yl)propyl)sulfamoyl)benzamide]
- recovery indicated by BW change %, Group 3QW1-1 compared with Group C-1 ([1]; 3QW (consecutive) 233 mg/kg/day vs continuous 100 mg/kg/day, total dosage 1400 mg/kg, Day 15, t-test p<0.05): better with a statistically significant difference relative to Group C-1
- recovery indicated by BW change %, Group 3QW1-2 compared with Group C-2 ([1]; 3QW (consecutive) 350 mg/kg/day vs continuous 150 mg/kg/day, total dosage 2100 mg/kg, Day 15, t-test p<0.05): better with a statistically significant difference relative to Group C-2
- recovery indicated by BW change %, Group 3QW2-1 compared with Group C-1 ([1]; 3QW (every other day) 233 mg/kg/day vs continuous 100 mg/kg/day, total dosage 1400 mg/kg, Day 15, t-test p<0.05): better with a statistically significant difference relative to Group C-1
- recovery indicated by BW change %, Group 3QW2-2 compared with Group C-2 ([1]; 3QW (every other day) 350 mg/kg/day vs continuous 150 mg/kg/day, total dosage 2100 mg/kg, Day 15, t-test p<0.05): better with a statistically significant difference relative to Group C-2
- body weight loss (BW change %) ([1]; 3QW Dosing Group 1, 233 or 350 mg/kg/day orally Days 1-3 and 8-10): body weight loss was observed
- body weight loss (BW change %) ([1]; 3QW Dosing Group 2, 233 or 350 mg/kg/day orally Days 1, 3, 5, 8, 10 and 12): body weight loss was observed
- BW change %, Group 5QW2-1 compared with Group C-1 ([1]; 5QW (2 on/1 off/3 on/1 off) 140 mg/kg/day vs continuous 100 mg/kg/day, total dosage 1400 mg/kg, Day 15): a statistically significant difference could not be observed
- recovery indicated by BW change %, Group 5QW2-2 compared with Group C-2 ([1]; 5QW (2 on/1 off/3 on/1 off) 210 mg/kg/day vs continuous 150 mg/kg/day, total dosage 2100 mg/kg, Day 15, t-test p<0.05): better with a statistically significant difference relative to Group C-2
- recovery indicated by BW change %, Group 5QW1-1 compared with Group C-1 ([1]; 5QW (consecutive) 140 mg/kg/day vs continuous 100 mg/kg/day, total dosage 1400 mg/kg, Day 15, t-test p<0.05): better with a statistically significant difference relative to Group C-1
- recovery indicated by BW change %, Group 5QW1-2 compared with Group C-2 ([1]; 5QW (consecutive) 210 mg/kg/day vs continuous 150 mg/kg/day, total dosage 2100 mg/kg, Day 15, t-test p<0.05): better with a statistically significant difference relative to Group C-2
- body weight loss (BW change %) ([1]; 5QW Dosing Group 1, 140 or 210 mg/kg/day orally Days 1-5 and 8-12): body weight loss was observed
- body weight loss (BW change %) ([1]; 5QW Dosing Group 2, 140 or 210 mg/kg/day orally Days 1-2, 4-6, 8-9 and 11-13): body weight loss was observed
- body weight loss (BW change %) ([1]; Continuous Dosing Group, 100 or 150 mg/kg/day orally once daily Day 1 to Day 14): body weight loss was observed
- BW change %, Group QOD-1 compared with Group C-1 ([1]; QOD 200 mg/kg/day vs continuous 100 mg/kg/day, total dosage 1400 mg/kg): a statistically significant difference could not be observed
- recovery indicated by BW change %, Group QOD-2 compared with Group C-2 ([1]; QOD 300 mg/kg/day vs continuous 150 mg/kg/day, total dosage 2100 mg/kg, Day 15, t-test p<0.05): better with a statistically significant difference compared with Group C-2
- body weight loss (BW change %) ([1]; QOD Dosing Group, 200 or 300 mg/kg/day orally every other day for two weeks): body weight loss was observed
- recovery indicated by BW change %, Group QW-1 compared with Group C-1 ([1]; QW 700 mg/kg/day vs continuous 100 mg/kg/day, total dosage 1400 mg/kg, Day 15, t-test p<0.05): better with a statistically significant difference than Group C-1
- recovery indicated by BW change %, Group QW-2 compared with Group C-2 ([1]; QW 1050 mg/kg/day vs continuous 150 mg/kg/day, total dosage 2100 mg/kg, Day 15, t-test p<0.05): better with Group QW-2 having a statistically significant difference relative to Group C-2
- body weight loss (BW change %) ([1]; QW Dosing Group, 700 or 1050 mg/kg/day orally once per week for two weeks): body weight loss was observed
- effect of SLFN11 knockdown with siRNA on the cytotoxic effect (CFPAC-1 cells [2]): SLFN11 knockdown significantly suppressed the cytotoxic effect
- correlation between SLFN11 mRNA expression and relative cell growth (%) [3]: a significant correlation
- RNR inhibitory activity [4]: potent
- compound-induced caspase-3/7 activation after SLFN11 knockdown (CFPAC-1 cells [5]): suppression
- effect of SLFN11 knockdown with siRNA on the cytotoxic effect (A673 cells): SLFN11 knockdown significantly suppressed the cytotoxic effect
- compound-induced caspase-3/7 activation after SLFN11 knockdown (NCI-H460 cells): suppression
